Measurements published in PMC4721923 (PLoS ONE, 2015).

Columns and labels:
[1] = test system: MG-63 cells (osteosarcoma); test: Chemosensitivity assay (crystal violet assay), MG-63; assay type: cell-based, human; conditions: for IC50: 96 hours of incubation, crystal violet assay, mean ± SEM
Procedure: (§1) Depending on the characteristics of the cells, two different assays were performed. For adherently growing cells (HaCaT, HT-29, NCI-H460, SK-MEL-3, MG-63, Capan-1), cytotoxic and cytocidal effects were determined in the crystal violet assay, whereas for loosely adherent cells (LNCaP, SK-ES-1) and cells growing in suspension (HEL 92.1.7, Jurkat, U-937) the MTT-assay was used with minor modifications. In brief, 1.5 · 10^3 (HaCaT, HT-29, NCI-H460, SK-MEL-3, MG-63, Capan-1) or 5 · 10^3 (Jurkat, U-937, HEL92.1.7, LNCaP, SK-ES-1) cells per well were seeded into flat-bottom 96-well plates (Sarstedt, Nümbrecht, Germany). All compounds were used as solutions prepared in DMSO and tested at final concentrations (8 replicates per concentration) of 1, 3, 10, 30 and 50 μM. In case of the vehicle control and test compounds, the final DMSO concentration amounted to 0.1%. Absorbance was measured at 580 nm in a 96-well plate reader (GENios pro microplate reader, Tecan, Salzburg, Austria). Effects were quantified as previously described for both assays.

[2] = test system: Jurkat cells (acute T-cell leukemia); test: Chemosensitivity assay (MTT-assay), Jurkat; assay type: cell-based, human; conditions: 96 hours of incubation, mean ± SEM
Procedure: as §1

Jurkat cells = test: Detection of apoptosis (annexin V/propidium iodide assay); assay type: cell-based, human
Procedure: Apoptosis was determined by incubating proliferating Jurkat cells with medium containing 1, 2, 4 or 5 at a concentration of 10 μM or 0.1% of DMSO (untreated control). After different periods of incubation (6, 24, 48 hours), samples were analyzed using the Annexin V-FITC apoptosis detection kit l (BD Biosciences, Heidelberg, Germany) according to the manufacturer’s protocol using 10^6 cells/mL. Cells were analyzed using a FACSCalibur flow cytometer (BD Biosciences, Heidelberg, Germany). The compensation was performed for each experiment with annexin V-FITC (530/30 BP filter) and propidium iodide (585/42 BP filter), respectively. At least 1 · 10^4 events were registered per sample and debris as well as cell aggregates were excluded by forward (FSC) versus side scatter (SSC) gates. Raw data were analyzed using FlowJo V10 software (Treestar Inc., Ashland, OR, USA).

NCI-H460 cells = test: Stability in the presence of cells (HPLC); assay type: in vitro ADME, human; conditions: incubation period of 10 minutes
Procedure: The recently reported validated HPLC method was applied.
Samples were measured immediately before the incubation (t = 0 minutes) and after 10 minutes of incubation at 25°C (t = 10 minutes). […] (TIF) Click here for additional data file.

[3] = test system: HEL 92.1.7 cells (erythroleukemia); test: Chemosensitivity assay (MTT-assay), HEL 92.1.7; assay type: cell-based, human; conditions: 96 hours of incubation, mean ± SEM
Procedure: as §1

[4] = test system: Capan-1 cells (pancreatic adenocarcinoma); test: Chemosensitivity assay (crystal violet assay), Capan-1; assay type: cell-based, human; conditions: 96 hours of incubation, mean ± SEM
Procedure: as §1

p53 in HT-29 cells = test: p53 expression by immunoblotting, HT-29; assay type: cell-based, human; conditions: HT-29 nuclear extracts; 10 μM; 24 hours
Procedure: (§2) The expression of the tumor suppressor p53 by NCI-H460 and HT-29 cells was determined after incubating the cells with compounds 1, 2, 4 and 5 at different concentrations for 24 hours. The cells (from a 10-cm culture dish, 70% confluency) were washed twice with PBS and harvested by scraping after addition of ice-cold buffer A (10 mM HEPES pH = 7.9, 10 mM KCl, 0.1 mM EDTA, 0.1 mM EGTA, protease inhibitor mix (Sigma-Aldrich)). After adding Nonidet P-40 (NP-40) (Sigma, Taufkirchen, Germany) to a final concentration of 1%, the cell suspensions were vortexed and subsequently centrifuged at 13000 g and 4°C for 30 seconds. The pellets were re-suspended in buffer B (buffer A + 400 mM NaCl, 1% NP-40) and gently agitated using a Sarmix M2000 (Sarstedt, Nümbrecht, Germany) at 4°C for 15 min, followed by centrifugation (13000 g, 4°C, 5 min; Microfuge; Eppendorf, Hamburg, Germany). The concentration of soluble protein was determined according to Bradford using the Bio-Rad Protein Assay (Bio-Rad Laboratories, Munich, Germany).
(§3) An amount of 30 μg total protein of each sample and 8 μL of a biotinylated molecular weight standard (1:6 dilution) (Cell Signaling, Danvers, MA, USA) was separated by SDS-PAGE (12% gel) and afterwards electroblotted (150 V, 30 min) to nitrocellulose membrane (Peqlab, Erlangen, Germany). To prevent unspecific binding, the membranes were treated with milk powder (5% (m/v) in buffer (150 mM NaCl, 20 mM Tris, 0.1% Tween 20, pH = 7.6)) before incubation with anti-p53 rabbit mAb (dilution 1:1000) (Cell Signaling) and anti-histone H2B Ab (dilution 1:1000) (Cell Signaling) as loading control at 4°C for 14 hours. The primary antibodies and the “protein ladder” were simultaneously detected with a horseradish peroxidase (HRP)-coupled donkey anti rabbit mAb (dilution 1:1000) (Santa Cruz biotechnology, Heidelberg, Germany) or the anti-biotin HRP-coupled antibody (dilution 1:5000) (Cell Signaling), respectively. The incubation with the secondary antibody was performed at room temperature for 1 hour. The bands were detected by […] using the Pierce ECL Western Blotting Substrate (Thermo Scientific, Dreieich, Germany). After exposure, the x-ray film (Amersham Hyperfilm ECL, GE Healthcare, München, Germany) was developed (CAWOMAT 2000 IR, CAWO, Schrobenhausen, Germany) and analyzed using a GS-710 imaging densitometer and Quantity One V. 4 software (Bio-Rad Laboratories, Munich, Germany).

p53 in NCI-H460 cells = test: p53 expression by immunoblotting, NCI-H460; assay type: cell-based, human; conditions: NCI-H460 nuclear extracts, 24 hours
Procedure: as §2, §3

[5] = test system: SK-ES-1 cells (Ewing's sarcoma); test: Chemosensitivity assay (MTT-assay), SK-ES-1; assay type: cell-based, human; conditions: 96 hours of incubation, mean ± SEM
Procedure: as §1

Structure (SMILES): Cn1c(CCCC(=O)O)nc2cc(N(CCCl)CCCl)ccc21 [Compound 1, bendamustine, reference compound]
- IC50 [1]: 55.8 ± 1.9 µM
- IC50 ([1]; Homo sapiens, MG-63, 96 h): ~56 µM
- concentrations with cytocidal drug effects ([1]; kinetic assay, long-term exposure (S6 Fig)): above 30 μM
- IC50 [2]: 43.4 ± 4.8 µM
- IC50 ([2]; Homo sapiens, 96 h): 43 µM
- effect on apoptosis compared to the control cells (Jurkat cells; 10 μM, regardless of the period of incubation (6, 24, 48 hours)): no effect
- stability in the presence of cells (NCI-H460 cells): Other decomposition products were not detected
- IC50 [3]: 86.2 ± 2.6 µM
- IC50 ([3]; Homo sapiens, HEL 92.1.7, 96 h): > 80 µM
- IC50 [4]: 18.9 ± 4.5 µM
- IC50 ([4]; Homo sapiens, CAPAN-1, 96 h): < 20 µM
- p53 expression (p53 in HT-29 cells): slight induction
- p53 expression (p53 in NCI-H460 cells; 100 μM): weakly induced
- IC50 [5]: 9.6 ± 0.3 µM
- IC50 ([5]; Homo sapiens, SK-ES1, 96 h): ~10 µM

Structure (SMILES): COC(=O)CCCc1nc2cc(N(CCCl)CCCl)ccc2n1C [Compound 2]
- IC50 ([1]; Homo sapiens, MG-63, 96 h): 1.9 ± 0.1 µM
- IC50 ([2]; Homo sapiens, 96 h): 3.1 ± 0.1 µM
- fraction of early apoptotic cells (Jurkat cells; 10 μM, 24 hours): approximately 10%
- fraction of early apoptotic cells (Jurkat cells; 10 μM, 48 hours): 15%
- fraction of secondary necrotic cells (Jurkat cells; 10 μM, 48 hours): 20–25%
- stability in the presence of cells (NCI-H460 cells): Other decomposition products were not detected
- IC50 ([3]; Homo sapiens, HEL 92.1.7, 96 h): 2.5 ± 0.1 µM
- IC50 ([4]; Homo sapiens, CAPAN-1, 96 h): 0.6 ± 0.04 µM
- p53 expression (p53 in HT-29 cells): increased the expression of p53
- p53 expression (p53 in NCI-H460 cells; 10 μM): significantly induced
- IC50 [5]: 0.18 ± 0.02 µM
- IC50 ([5]; Homo sapiens, SK-ES1, 96 h): ~0.2 µM

Structure (SMILES): Cn1c(CCCC(=O)OCCN2CCOCC2)nc2cc(N(CCCl)CCCl)ccc21 [Compound 4]
- IC50 ([1]; Homo sapiens, MG-63, 96 h): 3.5 ± 0.1 µM
- IC50 ([2]; Homo sapiens, 96 h): 3.2 ± 1 µM
- fraction of early apoptotic cells (Jurkat cells; 10 μM, 24 hours): approximately 10%
- fraction of early apoptotic cells (Jurkat cells; 10 μM, 48 hours): 15%
- fraction of secondary necrotic cells (Jurkat cells; 10 μM, 48 hours): 20–25%
- stability in the presence of cells (NCI-H460 cells): Other decomposition products were not detected
- IC50 ([3]; Homo sapiens, HEL 92.1.7, 96 h): 2.4 ± 1 µM
- IC50 ([4]; Homo sapiens, CAPAN-1, 96 h): 1.4 ± 0.01 µM
- p53 expression (p53 in HT-29 cells): increased the expression of p53
- p53 expression (p53 in NCI-H460 cells; 10 μM): significantly induced
- IC50 [5]: 0.91 ± 0.08 µM
- IC50 ([5]; Homo sapiens, SK-ES1, 96 h): 0.9 µM

Structure (SMILES): Cn1c(CCCC(=O)OCCN2CCCC2)nc2cc(N(CCCl)CCCl)ccc21 [Compound 5]
- IC50 ([1]; Homo sapiens, MG-63, 96 h): 0.38 ± 0.06 µM
- IC50 ([2]; Homo sapiens, 96 h): 0.61 ± 0.02 µM
- fraction of early apoptotic cells (Jurkat cells; 10 μM, 6 hours): ~ 2.5%
- cells either early apoptotic or secondary necrotic (Jurkat cells; 10 μM, 24 hours): Approximately 50%
- fraction of early apoptotic cells (Jurkat cells; 10 μM, 24 hours): 20%
- fraction of secondary necrotic cells (Jurkat cells; 10 μM, 24 hours): 30%
- fraction of secondary necrotic cells (Jurkat cells; 10 μM, 48 hours): 70%
- viability at 10 µM (Jurkat cells; Homo sapiens, Jurkat, 48 h, two days after treatment, read-out: viable cells): ~15%
- stability in the presence of cells (NCI-H460 cells): Other decomposition products were not detected
- IC50 ([3]; Homo sapiens, HEL 92.1.7, 96 h): 1 ± 0.01 µM
- IC50 ([4]; Homo sapiens, CAPAN-1, 96 h): 0.12 ± 0.02 µM
- p53 expression (p53 in HT-29 cells): increased the expression of p53
- p53 expression (p53 in NCI-H460 cells; 10 μM): significantly induced
- IC50 ([5]; Homo sapiens, SK-ES1, 96 h): 0.09 ± 0.01 µM
